Data from PubChem BioAssay AID256 (DTP/NCI, 2004).
Values joined by “and” are separate entries in the source; they are usually repeats but may differ in a detail not shown here. Identical values can stand only once. Toxic doses and inconclusive results are not listed. How the source made its calls: active means survival T/C of 150% or more; inactive means T/C below 125% in these data.

Test system: CD2F1 mice, L1210 leukemia ip, survival T/C
Test: NCI In Vivo Anticancer Drug Screen. Data for tumor model L1210 Leukemia (intraperitoneal) in CD2F1 (CDF1) mice
Details: higher = longer survival
Procedure, shortened: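 In this screen, transplantable tumors were grown in mice given either the compound or its vehicle. Results were expressed as the treated measurement relative to the control measurement.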

[1] = endpoint: mean survival time, dose: 100.0 mg/kg/injection, schedule: Q01DX001 (ip), vehicle: saline with Tween-80
[2] = endpoint: mean survival time, dose: 100.0 mg/kg/injection, schedule: Q01DX009 (ip), vehicle: saline with Tween-80
[3] = endpoint: mean survival time, dose: 200.0 mg/kg/injection, schedule: Q01DX001 (ip), vehicle: saline with Tween-80
[4] = endpoint: mean survival time, dose: 200.0 mg/kg/injection, schedule: Q01DX009 (ip), vehicle: saline with Tween-80
[5] = endpoint: mean survival time, dose: 400.0 mg/kg/injection, schedule: Q01DX001 (ip), vehicle: saline with Tween-80
[6] = endpoint: mean survival time, dose: 400.0 mg/kg/injection, schedule: Q01DX009 (ip), vehicle: saline with Tween-80
[7] = endpoint: mean survival time, dose: 25.0 mg/kg/injection, schedule: Q04DX003 (ip), vehicle: saline with Tween-80
[8] = endpoint: mean survival time, dose: 50.0 mg/kg/injection, schedule: Q04DX003 (ip), vehicle: saline with Tween-80
[9] = endpoint: mean survival time, dose: 100.0 mg/kg/injection, schedule: Q04DX003 (ip), vehicle: saline with Tween-80
[10] = endpoint: mean survival time, dose: 50.0 mg/kg/injection, schedule: Q01DX009 (ip), vehicle: saline with Tween-80

Measured: T/C

CO[C@@H](C=O)O[C@@H](C=O)CO
inactive: endpoint: mean survival time, dose: 70.0 mg/kg/injection, schedule: Q01DX001 (ip), vehicle: saline 121 % of control | endpoint: mean survival time, dose: 140.0 mg/kg/injection, schedule: Q01DX001 (ip), vehicle: saline 121 % of control

O/N=C(\CN1CCOCC1)c1ccc(Cl)cc1
inactive: endpoint: mean survival time, dose: 50.0 mg/kg/injection, schedule: Q01DX009 (ip), vehicle: saline 107 % of control | endpoint: mean survival time, dose: 100.0 mg/kg/injection, schedule: Q01DX009 (ip), vehicle: saline 96 % of control | endpoint: mean survival time, dose: 200.0 mg/kg/injection, schedule: Q01DX009 (ip), vehicle: saline 103 % of control

Cn1c(CC(O)(C(F)(F)F)C(F)(F)F)cc2ccccc21
inactive: endpoint: mean survival time, dose: 100.0 mg/kg/injection, schedule: Q01DX001 (ip), vehicle: other 106 % of control | endpoint: mean survival time, dose: 200.0 mg/kg/injection, schedule: Q01DX001 (ip), vehicle: other 92 % of control | endpoint: mean survival time, dose: 400.0 mg/kg/injection, schedule: Q01DX001 (ip), vehicle: other 95 % of control

COC(=O)C1C2CC(OS(=O)(=O)c3ccc(C)cc3)C(C2)C1C(=O)OC (configuration not stated)
inactive: [1] 93 % of control | [2] 98 % of control | [3] 95 % of control | [4] 91 % of control | [5] 92 % of control | [6] 95 % of control

CC(O)C(=O)NN (configuration not stated)
inactive: [2] 112 % of control | [4] 116 % of control | [6] 93 % of control

CCOC(=O)c1cn(C)c2c1C(O)=C(C(=O)OC)CC(=O)N2
inactive: endpoint: median survival time, dose: 25.0 mg/kg/injection, schedule: Q01DX009 (ip), vehicle: saline with Tween-80 90 % of control | endpoint: median survival time, dose: 50.0 mg/kg/injection, schedule: Q01DX009 (ip), vehicle: saline with Tween-80 98 % of control | endpoint: median survival time, dose: 100.0 mg/kg/injection, schedule: Q01DX009 (ip), vehicle: saline with Tween-80 92 % of control | endpoint: median survival time, dose: 200.0 mg/kg/injection, schedule: Q01DX009 (ip), vehicle: saline with Tween-80 94 % of control | endpoint: median survival time, dose: 400.0 mg/kg/injection, schedule: Q01DX009 (ip), vehicle: saline with Tween-80 90 % of control

CC1OC(OC(=O)c2ccc([N+](=O)[O-])cc2)CC(NC(=O)C(F)(F)F)C1OC(=O)c1ccc([N+](=O)[O-])cc1 (configuration not stated)
inactive: endpoint: mean survival time, dose: 25.0 mg/kg/injection, schedule: Q01DX005 (ip), vehicle: Klucel (hydroxypropylcellulose) (HPC) 94 % of control | endpoint: mean survival time, dose: 50.0 mg/kg/injection, schedule: Q01DX005 (ip), vehicle: Klucel (hydroxypropylcellulose) (HPC) 89 % of control

COc1ccc(/C=C/C(CC(NO)c2ccc(OC)cc2)=N/O)cc1 (configuration not stated)
inactive: endpoint: mean survival time, dose: 12.5 mg/kg/injection, schedule: Q04DX003 (ip), vehicle: saline with Tween-80 101 % of control | endpoint: mean survival time, dose: 25.0 mg/kg/injection, schedule: Q01DX001 (ip), vehicle: saline with Tween-80 103 % of control | [7] 101 % of control | endpoint: mean survival time, dose: 50.0 mg/kg/injection, schedule: Q01DX001 (ip), vehicle: saline with Tween-80 104 % of control | [8] 102 % of control | [9] 95 % of control | [3] 97 % of control | endpoint: mean survival time, dose: 200.0 mg/kg/injection, schedule: Q04DX003 (ip), vehicle: saline with Tween-80 98 % of control

CC(C)(C)c1ccc(OS(=O)(=O)c2cccc([N+](=O)[O-])c2)cc1
inactive: [2] 86 % of control | [4] 102 % of control | [6] 94 % of control

[N-]=[N+]=Nc1cc(NC(=O)c2ccccc2)ccc1NC(=O)c1ccccc1
inactive: [10] 101 % of control | [2] 96 % of control | [4] 104 % of control

O=C(Nc1ccccc1[N+](=O)[O-])OCc1ccccc1
inactive: endpoint: mean survival time, dose: 100.0 mg/kg/injection, schedule: Q04DX002 (ip), vehicle: saline with Tween-80 95 % of control | endpoint: mean survival time, dose: 200.0 mg/kg/injection, schedule: Q04DX002 (ip), vehicle: saline with Tween-80 91 % of control | endpoint: mean survival time, dose: 400.0 mg/kg/injection, schedule: Q04DX002 (ip), vehicle: saline with Tween-80 91 % of control

CCCCCCCCCCC(C(=O)OCC)P(=O)(OCC)OCC (configuration not stated)
inactive: endpoint: mean survival time, dose: 75.0 mg/kg/injection, schedule: Q01DX001 (ip), vehicle: saline 98 % of control | endpoint: mean survival time, dose: 150.0 mg/kg/injection, schedule: Q01DX001 (ip), vehicle: saline 102 % of control | endpoint: mean survival time, dose: 300.0 mg/kg/injection, schedule: Q01DX001 (ip), vehicle: saline 96 % of control

C[C@]12CC[C@H]3[C@@H](CCC4=C[C@@H](OC5OCC(OC6OC(CO)C(O)C(O)C6O)C(O)C5O)CC[C@@]43C=O)[C@@]1(O)CCC2C1=CC(=O)OC1 (some centres not stated)
inactive: endpoint: mean survival time, dose: 0.16 mg/kg/injection, schedule: Q01DX009 (ip), vehicle: Klucel (hydroxypropylcellulose) (HPC) 101 % of control | endpoint: mean survival time, dose: 0.31 mg/kg/injection, schedule: Q01DX009 (ip), vehicle: Klucel (hydroxypropylcellulose) (HPC) 101 % of control | endpoint: mean survival time, dose: 0.62 mg/kg/injection, schedule: Q01DX009 (ip), vehicle: Klucel (hydroxypropylcellulose) (HPC) 98 % of control | endpoint: mean survival time, dose: 0.63 mg/kg/injection, schedule: Q01DX009 (ip), vehicle: Klucel (hydroxypropylcellulose) (HPC) 102 % of control | endpoint: mean survival time, dose: 1.25 mg/kg/injection, schedule: Q01DX009 (ip), vehicle: Klucel (hydroxypropylcellulose) (HPC) 98 % of control and 107 % of control | endpoint: mean survival time, dose: 2.5 mg/kg/injection, schedule: Q01DX009 (ip), vehicle: Klucel (hydroxypropylcellulose) (HPC) 93 % of control and 95 % of control | endpoint: mean survival time, dose: 5.0 mg/kg/injection, schedule: Q01DX009 (ip), vehicle: Klucel (hydroxypropylcellulose) (HPC) 102 % of control | endpoint: mean survival time, dose: 10.0 mg/kg/injection, schedule: Q01DX009 (ip), vehicle: Klucel (hydroxypropylcellulose) (HPC) 108 % of control | endpoint: mean survival time, dose: 20.0 mg/kg/injection, schedule: Q01DX009 (ip), vehicle: Klucel (hydroxypropylcellulose) (HPC) 113 % of control | endpoint: mean survival time, dose: 156.0 micrograms/kg/injection, schedule: Q01DX009 (ip), vehicle: Klucel (hydroxypropylcellulose) (HPC) 104 % of control | endpoint: mean survival time, dose: 312.0 micrograms/kg/injection, schedule: Q01DX009 (ip), vehicle: Klucel (hydroxypropylcellulose) (HPC) 110 % of control | endpoint: mean survival time, dose: 625.0 micrograms/kg/injection, schedule: Q01DX009 (ip), vehicle: Klucel (hydroxypropylcellulose) (HPC) 100 % of control | endpoint: mean survival time, dose: 1250.0 micrograms/kg/injection, schedule: Q01DX009 (ip), vehicle: Klucel (hydroxypropylcellulose) (HPC) 92 % of control | endpoint: mean survival time, dose: 2500.0 micrograms/kg/injection, schedule: Q01DX009 (ip), vehicle: Klucel (hydroxypropylcellulose) (HPC) 101 % of control | endpoint: mean survival time, dose: 5000.0 micrograms/kg/injection, schedule: Q01DX009 (ip), vehicle: Klucel (hydroxypropylcellulose) (HPC) 101 % of control

CCN(CC)C(=S)S
inactive: endpoint: mean survival time, dose: 100.0 mg/kg/injection, schedule: Q04DX003 (ip), vehicle: other 94 % of control | endpoint: mean survival time, dose: 200.0 mg/kg/injection, schedule: Q04DX003 (ip), vehicle: other 97 % of control | endpoint: mean survival time, dose: 400.0 mg/kg/injection, schedule: Q04DX003 (ip), vehicle: other 103 % of control

ClC1CCC[N-]C1.ClC1CCC[N-]C1.O=C(O)CC(=O)O.[Pt+2] (configuration not stated)
inactive: endpoint: mean survival time, dose: 12.5 mg/kg/injection, schedule: Q01DX009 (ip), vehicle: saline with Tween-80 102 % of control | endpoint: mean survival time, dose: 25.0 mg/kg/injection, schedule: Q01DX009 (ip), vehicle: saline with Tween-80 100 % of control | [10] 104 % of control | [2] 104 % of control | [4] 94 % of control

O=C(O)c1c(Cl)c(-c2c(Cl)c(C(=O)O)c(Cl)c([N+](=O)[O-])c2Cl)c(Cl)c([N+](=O)[O-])c1Cl
inactive: [1] 93 % of control | [3] 94 % of control | [5] 89 % of control

Cc1cc(C)nc(C)c1.[Cl-].[Cl-].[Cl-].[Cl-].[Pt+2]
inactive: [7] 98 % of control | [8] 101 % of control | [9] 103 % of control

COC1C2CCC1N(C)CC2 (configuration not stated)
inactive: endpoint: mean survival time, dose: 37.5 mg/kg/injection, schedule: Q04DX002 (ip), vehicle: saline with Tween-80 106 % of control | endpoint: mean survival time, dose: 75.0 mg/kg/injection, schedule: Q04DX002 (ip), vehicle: saline with Tween-80 98 % of control | endpoint: mean survival time, dose: 150.0 mg/kg/injection, schedule: Q04DX002 (ip), vehicle: saline with Tween-80 117 % of control | endpoint: mean survival time, dose: 300.0 mg/kg/injection, schedule: Q04DX002 (ip), vehicle: saline with Tween-80 95 % of control
